PubChem BioAssay (NCI)
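Tested at 5 concentrations; 48 h exposure; 96-well plates; endpoints linearly interpolated, else capped at highest concentration. GI50 is the concentration that inhibits growth by half. TGI: concentration producing complete growth inhibition.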

Experiments:
Test in all cases: DTP human tumour cell line panel, 48 h
[1] = tested on: SK-MEL-28 melanoma
[2] = tested on: CCRF-CEM leukemia
[3] = tested on: HT29 colon
[4] = tested on: UO-31 renal
[5] = tested on: MCF7 breast
[6] = tested on: 786-0 renal
[7] = tested on: SK-MEL-5 melanoma
[8] = tested on: SR leukemia
[9] = tested on: RPMI-8226 leukemia
[10] = tested on: HOP-62 NSCLC

Compound	GI50 [1] [µM]	TGI [1] [µM]	GI50 [2] [µM]	TGI [2] [µM]	GI50 [3] [µM]	TGI [3] [µM]	GI50 [4] [µM]	TGI [4] [µM]	GI50 [5] [µM]	TGI [5] [µM]	GI50 [6] [µM]	TGI [6] [µM]	GI50 [7] [µM]	TGI [7] [µM]	GI50 [8] [µM]	TGI [8] [µM]	GI50 [9] [µM]	TGI [9] [µM]	GI50 [10] [µM]	TGI [10] [µM]
Cc1nccc2c3ccc(OCc4cn(-c5ccc(Cl)cc5)nn4)cc3n(CC(C)C)c12	4.14	18.2	2.04	> 33.3	1.25	10.4	1.72	14	1.45	9.29	2.09	8.33	1.64	6.15	1.03	5.53	1.09	3.95		
Cn1c2ccccc2c2c(=O)n(CCCC(=O)OC(=NC3CCCCC3)NC3CCCCC3)c3c(-c4ccccc4)nnn3c21	> 100	> 100	> 100	> 100	> 100	> 100	> 100	> 100	64.1	> 100	> 100	> 100	> 100	> 100			> 100	> 100	> 100	> 100
CCN(CC)CCn1c2ccccc2c(=O)c2c(OC)ccc(OC)c21				> 100		> 100		> 100				> 100				> 100		> 100		> 100
CCCCCCCC(=O)[O][Hg][CH2]C1COC([CH2][Hg][O]C(=O)CCCCCCC)CO1 (stereo unspecified)	14	27	1.91	> 100	15.6	34.3			4.32	18.3	7.95	30.4	11	28.8			3.84	> 100	17.2	30.9
COC[C@H](C)N=CN1CCc2ccccc2C1(Cc1ccccc1)Cc1ccccc1		23.6		56.7		20.1		33				30.3		> 100		42		38.9		95.4
COc1cc(/C=C2\C[C@H]3[C@@H]4CC=C5C[C@@H](OC(C)=O)CC[C@]5(C)[C@H]4CC[C@]3(C)[C@H]2OC(C)=O)ccc1OCCN1CCCC1	12.8	> 50	0.935	18.8	11.7	> 50	13.1	28.9	11.1	29.6	8.82	18.3	6.97	15.1			1.07	13.4	9.43	20.5
O=[N+]([O-])c1cc2c([N+](=O)[O-])cccc2o1		16.8		5.05		66.6		3.98		13.8		5.92		33.2				11.4		37.2
C[Si](C)(C)C(Sc1ccccc1)(Sc1ccccc1)Sc1ccccc1		> 100		> 100				> 100				> 100		> 100		> 100		> 100		
COc1c2c(cc3c1C(=O)Cc1ccc4c(c1CN(C)CC3)OCO4)OCO2		> 100		> 100		> 100		> 100				> 100		> 100		> 100		> 100		> 100
